Here are results for 33 compounds from patent publication US20070082880A1 (priority 2005, published 2007).

T1 sequence (Q04759 whole entry): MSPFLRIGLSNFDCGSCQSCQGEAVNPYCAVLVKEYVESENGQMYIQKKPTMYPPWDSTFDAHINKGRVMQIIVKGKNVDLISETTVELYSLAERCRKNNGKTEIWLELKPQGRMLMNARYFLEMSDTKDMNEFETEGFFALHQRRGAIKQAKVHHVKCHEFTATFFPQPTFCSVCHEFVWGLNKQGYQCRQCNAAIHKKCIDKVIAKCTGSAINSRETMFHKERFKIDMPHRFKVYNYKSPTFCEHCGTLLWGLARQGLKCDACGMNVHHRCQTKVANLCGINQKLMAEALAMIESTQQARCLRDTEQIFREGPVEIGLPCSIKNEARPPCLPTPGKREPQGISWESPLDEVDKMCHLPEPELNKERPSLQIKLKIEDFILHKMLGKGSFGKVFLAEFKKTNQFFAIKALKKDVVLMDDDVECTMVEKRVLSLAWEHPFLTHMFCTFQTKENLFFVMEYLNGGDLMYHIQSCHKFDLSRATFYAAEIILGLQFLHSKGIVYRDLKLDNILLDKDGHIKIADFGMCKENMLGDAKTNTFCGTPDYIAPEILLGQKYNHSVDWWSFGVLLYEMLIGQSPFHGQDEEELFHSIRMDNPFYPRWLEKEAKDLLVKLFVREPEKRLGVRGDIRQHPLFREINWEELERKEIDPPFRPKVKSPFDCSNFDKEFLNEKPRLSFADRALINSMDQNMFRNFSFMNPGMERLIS

The assay addresses T1, human PKCθ full length enzyme (Homo sapiens, UniProt Q04759).
T1 construct: human PKCθ full length enzyme (Panvera Catalog No. P2996); purchased Panvera P2996
The experiment in a line: PKCθ IMAP Assay. It is filed as biochemical. To be noted: average value when one or more samples were tested; ATP 6 uM, PKCθ 1 nM. The gist of the method:
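Full-length human PKCθ (1 nM final) with 6 uM ATP and 100 nM 5FAM-labelled peptide, 5% DMSO, 3.0 mM DTT in reaction buffer. 25 min at room temperature; IMAP bead binding 20 min, fluorescence polarization read. Compounds 2:1 serially diluted; no-ATP and no-enzyme wells as controls.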
Take `COc1ccc(C)cc1-c1cc2c(Nc3ccc4[nH]ccc4c3C)c(C#N)cnc2s1` [Compound 366, 2-(2-methoxy-5-methylphenyl)-4-[(4-methyl-1H-indol-5-yl)amino]thieno[2,3-b]pyridine-5-carbonitrile]: the midpoint of inhibition, the IC50, lay at 0.106 µM. `CCOc1ccc(CN(C)C)cc1-c1cc2c(Nc3ccc4[nH]ccc4c3C)c(C#N)cnc2s1` [Compound 367, 2-{5-[(dimethylamino)methyl]-2-ethoxyphenyl}-4-[(4-methyl-1H-indol-5-yl)amino]thieno[2,3-b]pyridine-5-carbonitrile] had an IC50 of 0.007 µM. Compound `Cc1ccc(CN(C)C)cc1-c1cc2c(Nc3ccc4[nH]ccc4c3C)c(C#N)cnc2s1` [Compound 368, 2-{5-[(dimethylamino)methyl]-2-methylphenyl}-4-[(4-methyl-1H-indol-5-yl)amino]thieno[2,3-b]pyridine-5-carbonitrile] showed an IC50 of 0.1 µM. `COc1ccc(C(=O)N(C)C)cc1-c1cc2c(Nc3ccc4[nH]ccc4c3C)c(C#N)cnc2s1` [Compound 369, 3-{5-cyano-4-[(4-methyl-1H-indol-5-yl)amino]thieno[2,3-b]pyridin-2-yl}-4-methoxy-N,N-dimethylbenzamide] yielded a half-maximal inhibitory concentration (IC50) of 0.03 µM. Compared with the last compound, the IC50 is about 3.3-fold lower. In turn, `CS(=O)(=O)Nc1ccccc1-c1cc2c(Nc3ccc4[nH]ccc4c3)c(C#N)cnc2s1` [Compound 370, N-{2-[5-cyano-4-(1H-indol-5-ylamino)thieno[2,3-b]pyridin-2-yl]phenyl}methanesulfonamide] came in with an IC50 of 1.01 µM. The compound `Cc1c(Nc2c(C#N)cnc3sc(-c4ccccc4NS(C)(=O)=O)cc23)ccc2[nH]ccc12` [Compound 371, N-(2-{5-cyano-4-[(4-methyl-1H-indol-5-yl)amino]thieno[2,3-b]pyridin-2-yl}phenyl)methanesulfonamide] had an IC50 of 0.182 µM. For `Cc1c(Nc2c(C#N)cnc3sc(-c4ccc(NS(C)(=O)=O)cc4)c(C)c23)ccc2[nH]ccc12` [Compound 372, N-(4-{5-cyano-3-methyl-4-[(4-methyl-1H-indol-5-yl)amino]thieno[2,3-b]pyridin-2-yl}phenyl)methanesulfonamide], the IC50 was found to be 0.627 µM. In turn, `Cc1c(Nc2c(C#N)cnc3sc(-c4cc5ccccc5s4)cc23)ccc2[nH]ccc12` [Compound 373, 2-(1-benzothien-2-yl)-4-[(4-methyl-1H-indol-5-yl)amino]thieno[2,3-b]pyridine-5-carbonitrile] showed an IC50 of 0.057 µM. Regarding `Cc1c(Nc2c(C#N)cnc3sc(-c4cc5cc(C=O)ccc5s4)cc23)ccc2[nH]ccc12` [Compound 374, 2-(5-formyl-1-benzothien-2-yl)-4-[(4-methyl-1H-indol-5-yl)amino]thieno[2,3-b]pyridine-5-carbonitrile], 0.14 µM corresponded to half-maximal inhibition (IC50). The result for `Cc1c(Nc2c(C#N)cnc3sc(-c4cccc(S(C)(=O)=O)c4)cc23)ccc2[nH]ccc12` [Compound 375, 4-[(4-methyl-1H-indol-5-yl)amino]-2-[3-(methylsulfonyl)phenyl]thieno[2,3-b]pyridine-5-carbonitrile] reads 0.041 µM. Compound `Cc1c(Nc2c(C#N)cnc3sc(-c4ccc(S(C)(=O)=O)cc4)cc23)ccc2[nH]ccc12` [Compound 376, 4-[(4-methyl-1H-indol-5-yl)amino]-2-[4-(methylsulfonyl)phenyl]thieno[2,3-b]pyridine-5-carbonitrile] displayed an IC50 of 0.026 µM. This IC50 is about 1.6-fold lower than that of the compound before. The result for `Cc1c(Nc2c(C#N)cnc3sc(-c4cccc(Br)c4)cc23)ccc2[nH]ccc12` [Compound 377, 2-(3-bromophenyl)-4-[(4-methyl-1H-indol-5-yl)amino]thieno[2,3-b]pyridine-5-carbonitrile] reads 0.141 µM. Regarding `Cc1cc(C=O)cc(-c2cc3c(Nc4ccc5[nH]ccc5c4C)c(C#N)cnc3s2)c1` [Compound 378, 2-(3-formyl-5-methylphenyl)-4-[(4-methyl-1H-indol-5-yl)amino]thieno[2,3-b]pyridine-5-carbonitrile], the midpoint of inhibition, the IC50, lay at 0.098 µM. `CCCOc1c(C=O)cc(C)cc1-c1cc2c(Nc3ccc4[nH]ccc4c3C)c(C#N)cnc2s1` [Compound 379, 2-(3-formyl-5-methyl-2-propoxyphenyl)-4-[(4-methyl-1H-indol-5-yl)amino]thieno[2,3-b]pyridine-5-carbonitrile] had an IC50 of 0.169 µM. `Cc1c(Nc2c(C#N)cnc3sc(-c4cnc5ccccc5c4)cc23)ccc2[nH]ccc12` [Compound 380, 4-[(4-methyl-1H-indol-5-yl)amino]-2-quinolin-3-ylthieno[2,3-b]pyridine-5-carbonitrile]: the IC50 is 0.016 µM. In turn, `CCCCOc1ccccc1-c1cc2c(Nc3ccc4[nH]ccc4c3C)c(C#N)cnc2s1` [Compound 381, 2-(2-butoxyphenyl)-4-[(4-methyl-1H-indol-5-yl)amino]thieno[2,3-b]pyridine-5-carbonitrile] registered an IC50 of 1.98 µM. This IC50 lies about 120-fold higher than the previous one. The compound `CCCOc1ccccc1-c1cc2c(Nc3ccc4[nH]ccc4c3C)c(C#N)cnc2s1` [Compound 382, 4-[(4-methyl-1H-indol-5-yl)amino]-2-(2-propoxyphenyl)thieno[2,3-b]pyridine-5-carbonitrile] registered an IC50 of 0.57 µM. For `Cc1c(Nc2c(C#N)cnc3sc(-c4ccccc4OCCCN(C)C)cc23)ccc2[nH]ccc12` [Compound 383, 2-{2-[3-(dimethylamino)propoxy]phenyl}-4-[(4-methyl-1H-indol-5-yl)amino]thieno[2,3-b]pyridine-5-carbonitrile], the IC50 is 0.064 µM. `CCCOc1ccc(CN(C)C)cc1-c1cc2c(Nc3ccc4[nH]ccc4c3C)c(C#N)cnc2s1` [Compound 384, 2-{5-[(dimethylamino)methyl]-2-propoxyphenyl}-4-[(4-methyl-1H-indol-5-yl)amino]thieno[2,3-b]pyridine-5-carbonitrile] yielded a half-inhibitory concentration (IC50) of 0.093 µM. Under `CCOc1ccc2cc(-c3cc4c(Nc5ccc6[nH]ccc6c5C)c(C#N)cnc4s3)ccc2c1` [Compound 385, 2-(6-ethoxy-2-naphthyl)-4-[(4-methyl-1H-indol-5-yl)amino]thieno[2,3-b]pyridine-5-carbonitrile] stands over 30 µM. `Cc1c(Nc2c(C#N)cnc3sc(-c4cncc(C=O)c4)cc23)ccc2[nH]ccc12` [Compound 387, 2-(5-formylpyridin-3-yl)-4-[(4-methyl-1H-indol-5-yl)amino]thieno[2,3-b]pyridin-5-carbonitrile] gave an IC50 of 0.002 µM. The result for `Cc1c(Nc2c(C#N)cnc3sc(-c4ccccc4F)cc23)ccc2[nH]ccc12` [Compound 388, 2-(2-fluorophenyl)-4-[(4-methyl-1H-indol-5-yl)amino]thieno[2,3-b]pyridine-5-carbonitrile] reads 0.118 µM.

Take `Cc1c(Nc2c(C#N)cnc3sc(-c4cc(C=O)ccc4F)cc23)ccc2[nH]ccc12` [Compound 389, 2-(2-fluoro-5-formylphenyl)-4-[(4-methyl-1H-indol-5-yl)amino]thieno[2,3-b]pyridine-5-carbonitrile]: 0.018 µM corresponded to half-maximal inhibition (IC50). Under `Cc1c(Nc2c(C#N)cnc3sc(-c4cccc(N(C)CCN(C)C)c4)cc23)ccc2[nH]ccc12` [Compound 390, 2-(3-{[2-(dimethylamino)ethyl](methyl)amino}phenyl)-4-[(4-methyl-1H-indol-5-yl)amino]thieno[2,3-b]pyridine-5-carbonitrile] stands 0.043 µM; under `Cc1c(Nc2c(C#N)cnc3sc(-c4ccc(N(C)C)nc4)cc23)ccc2[nH]ccc12` [Compound 391, 2-[6-(dimethylamino)pyridin-3-yl]-4-[(4-methyl-1H-indol-5-yl)amino]thieno[2,3-b]pyridine-5-carbonitrile], 0.086 µM; under `COCc1ccccc1-c1cc2c(Nc3ccc4[nH]ccc4c3C)c(C#N)cnc2s1` [Compound 392, 2-[2-(methoxymethyl)phenyl]-4-[(4-methyl-1H-indol-5-yl)amino]thieno[2,3-b]pyridine-5-carbonitrile], 0.177 µM. Under `Cc1c(Nc2c(C#N)cnc3sc(-c4cccc(NCCN(C)C)c4)cc23)ccc2[nH]ccc12` [Compound 394, 2-(3-{[2-(dimethylamino)ethyl]amino}phenyl)-4-[(4-methyl-1H-indol-5-yl)amino]thieno[2,3-b]pyridine-5-carbonitrile] stands 0.01 µM. On to `Cc1c(Nc2c(C#N)cnc3sc(-c4cnc(N5CCCCC5)nc4)cc23)ccc2[nH]ccc12` [Compound 395, 4-[(4-methyl-1H-indol-5-yl)amino]-2-(2-piperidin-1-ylpyrimidin-5-yl)thieno[2,3-b]pyridine-5-carbonitrile], for which the IC50 turned out to be 0.281 µM. In the case of `Cc1c(Nc2c(C#N)cnc3sc(-c4cnc(N5CCCC5)nc4)cc23)ccc2[nH]ccc12` [Compound 396, 4-[(4-methyl-1H-indol-5-yl)amino]-2-(2-pyrrolidin-1-ylpyrimidin-5-yl)thieno[2,3-b]pyridine-5-carbonitrile], the half-inhibitory concentration (IC50) worked out at 0.156 µM. In turn, `Cc1c(Nc2c(C#N)cnc3sc(-c4ccc(N5CCCCC5)nc4)cc23)ccc2[nH]ccc12` [Compound 397, 4-[(4-methyl-1H-indol-5-yl)amino]-2-(6-piperidin-1-ylpyridin-3-yl)thieno[2,3-b]pyridine-5-carbonitrile] yielded an IC50 of 0.292 µM.

`Cc1c(Nc2c(C#N)cnc3sc(-c4ccccc4CO)cc23)ccc2[nH]ccc12` [Compound 398, 2-[2-(hydroxymethyl)phenyl]-4-[(4-methyl-1H-indol-5-yl)amino]thieno[2,3-b]pyridine-5-carbonitrile]: half-maximal inhibition (IC50) required 0.075 µM.

Compound `Cc1c(Nc2c(C#N)cnc3sc(-c4ccccc4OCCN(C)C)cc23)ccc2[nH]ccc12` [Compound 399, 2-{2-[2-(dimethylamino)ethoxy]phenyl}-4-[(4-methyl-1H-indol-5-yl)amino]thieno[2,3-b]pyridine-5-carbonitrile] came in with an IC50 of 0.001 µM. This IC50 is about 75-fold lower than that of the compound before. For `N#Cc1cnc2sc(/C=C/c3ccccc3)cc2c1Nc1ccc2[nH]ccc2c1` [Compound 400, 4-(1H-indol-5-ylamino)-2-[(E)-2-phenylvinyl]thieno[2,3-b]pyridine-5-carbonitrile], the IC50 is 0.437 µM.
